Measurements published in patent US20030236294A1, “Compounds and methods for inducing apoptosis in proliferating cells” (priority 2002, published 2003).

What was measured:
PC-3 cells = assay: Apoptosis induction in PC-3 cells (T1/2, time for 50% apoptotic death; cell viability / Cell Death Detection ELISA); settings: for T½ (h) 50 μM: time required for eliciting 50% apoptotic death; for change in potency in apoptosis induction on replacement of —SO2NH2 with —CONH2: carboxamide versus sulfonamide counterpart, FIG. 10A; for classification as fast-acting or slow-acting apoptosis inducer: prostate cancer cells, FIG. 8
Experimental: Induction of apoptosis was also assessed by using a “Cell Death Detection ELISA” assay (Boehringer-Mannheim) following the manufacturer's instructions. This test is based on the quantitative determination of cytoplasmic histone-associated DNA fragments in the form of mono- and oligonucleosomes after induced apoptotic death. […] Both floating and adherent cells were collected, and cell lysates equivalent to 10^4 cells were used for the ELISA analysis.
Induction of apoptosis was also assessed by using a “Cell Death Detection ELISA” assay (Boehringer-Mannheim) by following the manufacturer's instructions. This test is based on the quantitative determination of cytoplasmic histone-associated DNA fragments in the form of mono- and oligonucleosomes after induced apoptotic death. […] Both floating and adherent cells were collected, and cell lysates equivalent to 10^4 cells were used in the ELISA.
Both adherent and floating cells were combined for the assessment of cell viability. Cell viability was determined by trypan blue exclusion.

PGE2 production = assay: Prostaglandin E2 (PGE2) immunoassay; assay type: cell-based, human; settings: 50 μM; 1F2, 3D9, 7D9 cells and parental PC-3 cells; data not shown
Experimental: Culture medium was changed, and 24 hours later conditioned medium was collected to assay PGE2. Conditioned medium was centrifuged to remove particulate material, and then cells were collected by scraping to determine the protein concentration. PGE2 was assayed in 100 μL medium in triplicate according to the manufacturer's instruction (R&D Systems, Inc.; Minneapolis, Minn.). PGE2 data were normalized to protein content.

LNCaP cells = assay: Apoptosis induction in LNCaP cells; assay type: cell-based, human; settings: LNCaP (p53+/+), compared with PC-3; data not shown
DU-145 cells = assay: Apoptosis induction in DU-145 cells; assay type: cell-based, human; settings: DU-145 (p53−/−), compared with PC-3; data not shown
[1] = system: Akt and ERK2 phosphorylation in PC-3 cells; assay: Western blot of Akt and ERK2 phosphorylation status; assay type: cell-based, human
Experimental: Immunoblotting For western blot analysis, cells were washed in phosphate-buffered saline (PBS), resuspended in sodium dodecyl sulfate (SDS) gel-loading buffer consisting of 50 mM Tris-HCl, pH 6.8, 100 mM dithiothreitol, 2% SDS, 0.1% bromophenol blue, and 10% glycerol, sonicated with an ultrasonic sonicator for 5 seconds (Virsonic 300, 4.5 output), and boiled for 5 minutes. After a brief centrifugation, equivalent protein amounts (60-100 μg) from the soluble fractions were resolved in 10% SDS-polyacrylamide gels on a Minigel apparatus and transferred to a nitrocellulose membrane in a semidry transfer cell. The transblotted membrane was washed twice with Tris-buffered saline (TBS) containing 0.05% Tween 20 (TBST). After blocking with TBS containing 5% nonfat milk for 60 minutes, the membrane was incubated with the appropriate primary antibody (anti-COX-2, anti-Akt, anti-P-^473Ser Akt, anti-ERK, and anti-phospho-ERK antibodies diluted 1:1,000; anti-actin monoclonal antibody, diluted 1:5,000) in TBS-1% nonfat milk at 4° C. for 12 hours and washed twice with TBST. The membranes were probed with goat anti-rabbit IgG-horseradish peroxidase conjugates (diluted 1:5,000) for 1 hour at room temperature and washed twice with TBST. Bands were visualized by enhanced chemiluminescence.
Immunoblotting. […]

COX-2 = molecular target: T1, COX-2 (Homo sapiens, UniProt P35354); settings: Table 1; read-out: IC50 (μM), COX-2 inhibition; cited from earlier work
T1 sequence (P35354 18-604): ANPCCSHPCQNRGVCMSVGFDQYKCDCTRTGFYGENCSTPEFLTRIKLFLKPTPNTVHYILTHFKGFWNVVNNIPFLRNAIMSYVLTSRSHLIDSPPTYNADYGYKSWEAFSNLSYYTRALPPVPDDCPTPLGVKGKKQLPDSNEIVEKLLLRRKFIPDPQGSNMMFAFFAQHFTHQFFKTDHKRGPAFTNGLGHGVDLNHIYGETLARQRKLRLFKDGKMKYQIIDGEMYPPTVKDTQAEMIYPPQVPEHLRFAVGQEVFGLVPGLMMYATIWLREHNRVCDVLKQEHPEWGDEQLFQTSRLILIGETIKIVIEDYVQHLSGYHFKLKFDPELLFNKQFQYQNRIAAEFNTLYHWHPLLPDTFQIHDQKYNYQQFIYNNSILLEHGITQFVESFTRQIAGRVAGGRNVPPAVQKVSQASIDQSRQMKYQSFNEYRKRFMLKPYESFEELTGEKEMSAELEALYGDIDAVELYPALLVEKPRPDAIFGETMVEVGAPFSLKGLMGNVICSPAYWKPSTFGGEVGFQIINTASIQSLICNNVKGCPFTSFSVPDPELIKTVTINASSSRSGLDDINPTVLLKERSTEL

**Q.** For `Cc1ccc(C)c(C)c1` [Compound 21b], which “T½ (h) 50 μM” value (PC-3 cells; 50 μM, Table 2) is on record?
**A.** 2 h

**Q.** For `COc1ccc(C)c(OC)c1` [Compound 22b], which “T½ (h) 50 μM” value (PC-3 cells; 50 μM, Table 2) is on record?
**A.** >100 h

**Q.** Which “change in potency in apoptosis induction on replacement of —SO2NH2 with —CONH2” value (shortened to “change in potency in apoptosis induction”) (PC-3 cells) does the source give for “4-[5-(2,4-Dichlorophenyl)-3-(trifluoromethyl)-1H-pyrazol-1-yl]benzene-carboxyamide [Compound 31b]” here?
**A.** no appreciable change

**Q.** For “4-[5-(2,5-Dichlorophenyl)-3-(trifluoromethyl)-1H-pyrazol-1-yl]benzene-carboxyamide [Compound 32b]”, which “change in potency in apoptosis induction” value (PC-3 cells) is on record?
**A.** no appreciable change

**Q.** With `CS(=O)(=O)c1ccc(C2=C(c3ccccc3)C(=O)OC2)cc1` [rofecoxib, reference compound] as the molecule, how does the PGE2 production (PGE2 production) read?
**A.** reduced to the same extent

**Q.** And the “classification as fast-acting or slow-acting apoptosis inducer” value (PC-3 cells)?
**A.** slow-acting apoptosis inducer

**Q.** For `NS(=O)(=O)c1ccc(C2=C(c3ccc(Cl)c(Cl)c3)COC2=O)cc1` [Compound 49b, 3-(4-sulfamoylphenyl)-4-(3′,4′-dichlorophenyl)-2(5H)-furanone], which “T1/2 at 50 μM” value (PC-3 cells; 50 μM, PC-3 cells) is on record?
**A.** 15 h

**Q.** With `Cc1ccc(C)c(-c2cc(C(F)(F)F)nn2-c2ccc(S(N)(=O)=O)cc2)c1` [compound 7a, 4-[5-(2,5-dimethylphenyl)-3-(trifluoromethyl)-1H-pyrazol-1-yl]benzenesulfonamide] as the molecule, how does the “time to 50% decrease in cell viability” value (PC-3 cells; 50 μM, PC-3 cells) read?
**A.** within an hour

**Q.** With “4-[5-(3,4-Dichlorophenyl)-3-(trifluoromethyl)-1H-pyrazol-1-yl]benzene-carboxyamide [Compound 33b]” as the molecule, how does the “change in potency in apoptosis induction” value (PC-3 cells) read?
**A.** no appreciable change

**Q.** With `Fc1ccc(F)cc1` [Compound 5b] as the molecule, how does the “T½ (h) 50 μM” value (PC-3 cells; 50 μM, Table 2) read?
**A.** >100 h

**Q.** With `CS(=O)(=O)Nc1ccc([N+](=O)[O-])cc1OC1CCCCC1` [NS398, reference compound] as the molecule, how does the PGE2 production (PGE2 production) read?
**A.** reduced to the same extent

**Q.** And the “classification as fast-acting or slow-acting apoptosis inducer” value (PC-3 cells)?
**A.** slow-acting apoptosis inducer

**Q.** For `Cc1cc(Cl)sc1Cl` [Compound 29b], which “T½ (h) 50 μM” value (PC-3 cells; 50 μM, Table 2) is on record?
**A.** >100 h

**Q.** With `NS(=O)(=O)c1ccc(-n2nc(C(F)(F)F)cc2-c2cc(Cl)ccc2Cl)cc1` [Example 5] as the molecule, how does the “T½ (h) 50 μM” value (PC-3 cells; 50 μM, Table 1) read?
**A.** 3 h

**Q.** With `NS(=O)(=O)c1ccc(-n2nc(C(F)(F)F)cc2-c2ccc(Cl)cc2)cc1` [1a, 4-[5-(4-Chlorophenyl)-3-(trifluoromethyl)-1H-pyrazol-1-yl]benzenesulfonamide] as the molecule, how does the “susceptibility to apoptosis induction” value (LNCaP cells) read?
**A.** susceptibility identical to that of PC-3 cells

**Q.** And the “susceptibility to apoptosis induction” value (DU-145 cells)?
**A.** susceptibility identical to that of PC-3 cells

**Q.** What about the “phosphorylation status of Akt and ERK2” value ([1]; PC-3 cells) of the same molecule?
**A.** concurrent dephosphorylation of Akt and ERK2

**Q.** For `Cc1ccco1` [Compound 26b], which “T½ (h) 50 μM” value (PC-3 cells; 50 μM, Table 2) is on record?
**A.** >100 h

**Q.** Which “T½ (h) 50 μM” value (PC-3 cells; 50 μM, Table 2) does the source give for `Cc1ccc(F)cc1F` [Compound 4b] here?
**A.** >100 h

**Q.** With `Cc1ccc(-c2cc(C(F)(F)F)nn2-c2ccc(S(N)(=O)=O)cc2)c(C)c1` [Example 9] as the molecule, how does the “T½ (h) 50 μM” value (PC-3 cells; 50 μM, Table 1) read?
**A.** 2 h

**Q.** For `Cc1ccc(C)c(-c2cc(C(F)(F)F)nn2-c2ccc(S(N)(=O)=O)cc2)c1` [Example 7], which IC50 (COX-2) is on record?
**A.** > 100 µM

**Q.** And the “T½ (h) 50 μM” value (PC-3 cells; 50 μM, Table 1)?
**A.** 1 h

**Q.** For `NS(=O)(=O)c1ccc(-n2nc(C(F)(F)F)cc2-c2ccc(Cl)cc2Cl)cc1` [Example 12], which “T½ (h) 50 μM” value (PC-3 cells; 50 μM, Table 1) is on record?
**A.** 2 h

**Q.** Which “activity in eliciting apoptosis in PC-3 cells (in words)” value (PC-3 cells; PC-3 cells) does the source give for `Cc1ccc(-c2ccnn2-c2ccc(S(N)(=O)=O)cc2)cc1` [Compound 40b] here?
**A.** loss of high potency

**Q.** For `Cc1ccc(C#N)cc1` [Compound 16b], which “T½ (h) 50 μM” value (PC-3 cells; 50 μM, Table 2) is on record?
**A.** >100 h

**Q.** With `COc1ccc(OC)c(C)c1` [Compound 23b] as the molecule, how does the “T½ (h) 50 μM” value (PC-3 cells; 50 μM, Table 2) read?
**A.** >100 h

**Q.** Which “change in potency in apoptosis induction” value (PC-3 cells) does the source give for “4-[5-(2,4-Dimethylphenyl)-3-(trifluoromethyl)-1H-pyrazol-1-yl]benzene-carboxyamide [Compound 37b]” here?
**A.** no appreciable change

**Q.** Which “T½ (h) 50 μM” value (PC-3 cells; 50 μM, Table 1) does the source give for `NS(=O)(=O)c1ccc(-n2nc(C(F)(F)F)cc2-c2ccccc2Cl)cc1` [Example 13] here?
**A.** 4 h

**Q.** With `Cc1cccs1` [Compound 27b] as the molecule, how does the “T½ (h) 50 μM” value (PC-3 cells; 50 μM, Table 2) read?
**A.** >100 h

**Q.** Which “susceptibility to apoptosis induction” value (LNCaP cells) does the source give for `Cc1ccc(-c2cc(C(F)(F)F)nn2-c2ccc(S(N)(=O)=O)cc2)cc1` [celecoxib, 4-[5-(4-methylphenyl)-3-(trifluoromethyl)-1H-pyrazol-1-yl]benzenesulfonamide, reference compound] here?
**A.** susceptibility identical to that of PC-3 cells

**Q.** And the “susceptibility to apoptosis induction” value (DU-145 cells)?
**A.** susceptibility identical to that of PC-3 cells

**Q.** And the “phosphorylation of Akt and ERK2” value ([1]; all four antisense COX-2 clones)?
**A.** decreased phosphorylation of Akt and ERK2

**Q.** And the “time to 50% decrease in cell viability” value (PC-3 cells; 50 μM, PC-3 cells)?
**A.** 2 h

**Q.** And the “T½ (h) 50 μM” value (PC-3 cells; 50 μM, Table 2)?
**A.** 2 h

**Q.** For `CS(=O)(=O)c1ccc(C2=C(c3ccccc3)COC2=O)cc1` [Compound 47b, 3-(4′-methylsulfonylphenyl)-4-phenyl-2(5H)-furanone], which “activity in eliciting apoptosis in PC-3 cells (in words)” value (PC-3 cells; PC-3 cells) is on record?
**A.** poor activity
